From patent publication US20220175888A1, “CARBOXYLATED OSTEOCALCIN FOR TREATMENT OF AMYLOIDOSIS OR DISEASES ASSOCIATED WITH ABNORMAL PROTEIN FOLDING” (NATIONAL INSTITUTE OF IMMUNOLOGY, priority 2018, published 2022) come the findings set out here.

Positions of bridges follow the written chain, without caps; N, C: chain ends. Non-standard residues stand in square brackets, D forms with d. No end group written: not given here. Gla = N[C@@H](CC(C(=O)O)C(=O)O)C(=O)O

In one series the test system is TFEB. The series is described as follows: TFEB localization, transcription, protein expression and phosphorylation in astrocytes. The series is classed as cell-based, mouse. The following applies: qPCR. (In general: Real-time PCR tracks product formation cycle by cycle.)
For the next series, the system named is astrocytes. The series is described as follows: Lysotracker Red / HiLyte Abeta42 confocal microscopy in astrocytes. The series is classed as cell-based, mouse. As for the experimental part:
This was further confirmed by surface staining of LRP1 and confocal microscopy (FIG. 4Gc). […] We next assessed how Abeta42 degradation occurs in Gla-OC exposed astrocytes. This was assessed by first evaluating the protein expression of LC3II by immunoblot analysis. Under normal conditions excess cargo in cell is cast-off by a cell through a recycling pathway called ‘autophagy’. The first step in autophagy is autophagosome formation wherein LC3I a cytosolic microtubule associated protein light chain 3 gets lipidated to form LC3II and recruits to autophagosomal membranes to allow cells to be LC3II*, a bona fide marker of autophagy and the first step towards autophagic lysosomal degradation. Another requirement for autophagosomes to be functionally relevant is downstream fusion with lysosomes. Under normal conditions, autophagosomes fuse with endosomes to form a higher order organelle called […] ‘amphisomes’, which then matures to form ‘autolysosomes or terminal lysosomes’. The efficiency of autophagosome/lysosome fusion was evaluated using Lysotracker Red, a fluorescent dye that preferentially accumulates in vesicles with acidic pH. The cells were treated with Lysotracker Red for 20 min and fixed using ice-cold methanol. After confocal microscopy (Ziess) the images were analyzed using Image J (NIH). The co-occurrence of the two signals is shown as Mander's overlap co-efficient (MOC) in the range of values 0 to 1. […] This dye accumulates in acidic intracellular organelles and its fluorescence increases with acidic environments and decreases with that of alkaline. The status of lysosome biogenesis was assessed by immunoblot or immunocytochemistry. […] To evaluate lysosome biogenesis the status of LAMP2 (by immunoblot), cathepsins (by immunoblot and colorimetric activity based assay) and TFEB or transcription factor EB (by immunocytochemistry for cellular localization of transcription, by PCR for evaluating gene transcription, by immunoblot for protein expression and by co-immunoprecipitation and immunoblot to check phosphorylation of TFEB) were evaluated. […]

The nature of series [1]: Gla-OC and Glu-OC in serum by ELISA. The note with it: 5×FAD Tg mice vs Tg controls, 300 ng per mouse per day. The format is in vivo. An excerpt: Two-month old 5×FAD Tg mice, both male as well as female were used for the study. For the purposes of this study wild type mice is referred to as Wt and 5×FAD mice is referred to as Tg. All experimental procedures in were approved by the Institutional Animal Ethics Committee. For experimentation, the mice were divided in below groups for treatment:
1. Wild type mice given vehicle (lx PBS or phosphate buffered saline; pH 7.4). 2. 5×FAD Transgenic mice given vehicle. 3. 5×FAD Transgenic mice given carboxylated osteocalcin (Gla-OC) subcutaneously at doses (300 ng-1000 ng per mouse of weight ranging from 25-28 g for 1 month). 4. Wild type mice given Gla-OC.
Foremost the status of osteocalcin in long bones and serum of amyloid overexpressing 5×FAD Tg mice was evaluated. Thereafter, the effect of osteocalcin administration against amyloidosis in brain was tested. 1. The status of osteocalcin expression in bone was determined by evaluating the mRNA level of Bglap2 gene (gene that encodes osteocalcin in mouse) using quantitative PCR or qPCR. Long bones of mice like femur and tibia were harvested from mice after sacrifice. […] Following amplification, fold changes in gene expression versus β-actin (reference) analysis was determined using the […] (Livak) method. […] Carboxylated (Gla-OC) and undercarboxylated (Glu-OC) forms of osteocalcin in serum of mice was analyzed by ELISA. […]
A general note: In an ELISA, binding on a coated surface is turned into a signal by an enzyme label.

With `Cn1cnc(N)c2ncnc1-2` [3-methyl adenine], the “transcription of Tfeb gene in the presence of autophagy inhibitors” value with TFEB is “increased”. Take `CCN(CC)CCCC(C)Nc1ccnc2cc(Cl)ccc12` (stereo not drawn) [chloroquine]: in the series with TFEB, the “transcription of Tfeb gene in the presence of autophagy inhibitors” value was “increased”.

In the case of “HiLyte Abeta42: fluorescent HiLyte labelled Abeta42 peptide added to astrocytes; challenge agent, Abeta42 alone comparator”, the “number of Lysotracker Red puncta, lower as compared to basal” value with astrocytes (HiLyte Abeta42 treated cells without Gla-OC) is given as 4 fold. Also, the “size of Lysotracker Red puncta” value in the series with astrocytes (astrocyte cultures) is less than 0.25 μm^2. Also, in the series on astrocytes (range of values 0 to 1, Image J analysis), the “degree of co-localization of HiLyte Abeta42 with Lysotracker Red (Mander's overlap co-efficient)” value was determined as 0.412. Turning to “YLYQWLGAPVPYPDPL[Gla]PRR[Gla]VC[Gla]LNPDCDELADHIGFQEAYRRFYGPV (disulfide 23-29) [Gla-OC, carboxylated osteocalcin]”, the “level of Gla-OC in serum” value in series [1] was “significantly increased (p<0.05)”.
